Measured values published in patent US7994402B2, “Method of increasing plant organ and seed size in a plant” (Monsanto Technology LLC, priority 2002, dated 2011).

Target: T1, A. thaliana protein molecule SEQ ID NO: 4 (His-tagged, from pMON63134) (Arabidopsis thaliana, UniProt Q9ZW18)
T1 construct: His-tag (N); made in house; host or cells: E. coli (pET-28b vector, plasmid pMON63134)
Assay: Spectrophotometric reductase assay, consumption or production of NADPH at 340 nm
Type: biochemical
From the text: Appropriate clones (as shown in FIGS. 4-7) expressing all four versions of above-mentioned proteins in E. coli were identified by appropriate antibiotic selection as described by the manufacturer (Novagen 441 Charmany Drive Madison, Wis., 53719, USA). Expressed protein bands of the predicted sizes were identified by analytical SDS poly acrylamide gel electrophoresis (Laemmli, U.K., Nature, 227, 680, 1970) to confirm the expression of desired protein. […] Protein obtained from the plasmid pMON63134 (FIG. 6) was chosen for assay work described below. Protein extracts were prepared by freeze thawing and sonication as described Cull and McHenry (Cull M and McHenry C. S. Methods in Enzymology 182, 147-153, 1990). Pellets were resuspended in an appropriate volume of either 50 mM Tris-HCl pH 7.4 250 mM NaCl and 500 μM EDTA with 0.05% CHAPS and 1 mM ABESF or 50 mM KH2PO4 pH-7.2 250 mM NaCl and 250 μM EDTA with 0.05% CHAPS and 1 mM ABESF, buffer. Crude extracts containing His-tagged protein were applied to equilibrated His-Trap (Pharmacia Piscataway, N.J.) columns and purified by standard procedures as described by the manufacturer of the columns. Steps included a 10 mM imidazole elution/wash and elution in 250 mM imidazole. As a result the Arabidopsis tagged protein was partially purified (approximately 85-90% by SDS-PAGE stained with Coomasie Blue). Purified samples were gel filtered into 50 mM KH2PO4 pH-7.2 250 mM NaCl and 250 μM EDTA, 10% glycerol and stored at −80° C. until use. Protein concentrations were 1.5 to 1.7 mg/mL, based on the method of Bradford (Bradford M, Anal Biochem, 72, 248, 1976 and Bio-Rad Laboratories Procedure bulletin 1123) with BSA standard (Bradford reagent and BSA was from Bio-Rad Laboratories Headquarters 1000 Alfred Nobel Drive Hercules, Calif. 94547). The assays described below used 10 or 15 uL of this solution (15 to 22 μg per reaction).
Spectrophotometric assays were used for determination of enzyme activities of purified proteins. Assays were based on earlier described methods (Portsteffen et al. Phyochemistry, 37, 391, 1994). […] Assays were performed in a Varian Cary 50 Bio spectrophotometer (Varian Instruments Inc. AA, ICP, UV, to Fluorescence Products 679 Springvale RoadMulgrave, Victoria 3170 Australia). All assays were run at 30° C. for 10 to 30 minutes in 1 mL volumes using 100 mM KH2PO4 pH 6.5, 250 μM EDTA or 50 mM KH2PO4 pH-7.2, 250 mM NaCl, and 250 μM EDTA as reaction buffer. If metals were added they were supplemented to reactions in cuvettes from 100 mM stocks of either ZnCl2 and or MgCl2. Substrates included those found in table 8. […] Controls contained no substrate to determine the background rate of consumption and degradation of NADPH. NADPH solutions were freshly made and checked by UV-vis for degradation. Enzyme solutions were supplemented with 1 mM MgCl2 and 1 mM Zn Cl2 which were at 1.5 to 1.7 mg/mL concentrations. The assays used 10 or 15 μl of this solution (ca. 15 to 22 μg per reaction). Stock solutions of the substrates (20 to 500 mM) were made up in a reaction buffer or as noted. Steroids solutions were made in 100% EtOH. From these stock solutions additions to the assays were made directly. Precipitation of steroids was observed. Thus, the soluble concentration of steroids in reaction mixture is not accurately known in each case. However, good estimate of substrate (sterol) concentration would be 100 to 200 μM for a saturated solution under these conditions. […] In addition to cell extract control, a substrate control was also employed because solutions of some substrates tested can have a lower pH at described assay conditions which may affect rates of NADPH degradation and enzyme activity under assay conditions.

T1 sequence (Q9ZW18 1-268): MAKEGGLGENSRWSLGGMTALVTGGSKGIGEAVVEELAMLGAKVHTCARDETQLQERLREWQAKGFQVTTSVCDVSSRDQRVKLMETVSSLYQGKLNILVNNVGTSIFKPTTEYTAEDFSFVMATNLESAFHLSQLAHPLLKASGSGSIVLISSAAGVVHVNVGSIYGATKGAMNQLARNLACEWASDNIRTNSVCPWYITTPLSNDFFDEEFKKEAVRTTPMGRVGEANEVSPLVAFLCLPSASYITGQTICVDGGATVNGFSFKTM

C[C@]12CCC(=O)CC1CCC1C2CC[C@]2(C)C(=O)CCC12 (stereo in doubt) [5α-androstane-3,17-dione]
Activity (substrate) (100 μM): YES 100 μM

C[C@]12CCC(=O)C=C1CCC1C2CC[C@]2(C)C(=O)CCC12 (stereo partly drawn) [4-androstene-3,17-dione]
Activity (substrate) (100 μM): YES 100 μM

OCC(O)C(O)C(O)CO (stereo not drawn) [Arabinitol]
Activity (substrate) (25 mM): No 25 mM

OCC1O[C@H](O)C(O)[C@@H](O)[C@@H]1O (stereo partly drawn) [D-Glucose]
Activity (substrate) (25 mM): No 25 mM

C=C1C[C@]23C[C@@]1(O)CC[C@H]2[C@@]12C=C[C@H](O)[C@@](C)(C(=O)O1)[C@H]2[C@@H]3C(=O)O [Gibberellic Acid (GA3)]
Activity (substrate) (1 and 10 mM): No 1 and 10 mM

O=C1OC(CO)[C@@H](O)[C@H](O)C1O (stereo partly drawn) [Glucono 1,5 lactone]
Activity (substrate) (25 mM): No 25 mM

O=C(O)C(O)C(O)C(O)C(O)CO (stereo not drawn) [Potassium d-gluconate]
Activity (substrate) (25 mM): No 25 mM

OC[C@H]1O[C@@](CO)(O[C@H]2O[C@H](CO)[C@@H](O)[C@H](O)[C@H]2O)[C@@H](O)[C@@H]1O [Sucrose]
Activity (substrate) (25 mM): No 25 mM

CN1C2CCC1CC(O)C2 (stereo not drawn) [Tropine]
Activity (substrate) (1 and 10 mM): No retested with new enzyme 1 and 10 mM

CN1C2CCC1CC(=O)C2 [Tropinone]
Activity (substrate) (1 and 10 mM): No retested with new enzyme 1 and 10 mM

O=C1OC(CO)[C@H](O)C(O)C1O (stereo partly drawn) [δ-gluconolactone]
Activity (substrate) (25 mM): No 25 mM

acetone
Activity (substrate) (65 mM): Yes | Activity (substrate) (at lower concentrations than 65 mM): Much lower

isopropanol
Activity (substrate) (68 mM, substrate for the reverse reaction): Yes 68 mM | substrate quality compared with acetone (at same concentrations, reverse reaction): At high concentrations it is a substrate for the reverse reaction but at same concentrations is a poorer substrate than acetone indicating potential preference for the reductase activity under these conditions.
